The assay deals with lipid peroxide formation in rat brain tissue homogenate. The experiment in a line: Inhibition of lipid peroxide formation in rat brain tissue homogenate (TBA method). Type of assay: biochemical, rat (male SD). As to conditions: 10^-5 M; n = 3; mean ± standard error; 37° C., 1 hour. The method, then:
Activity to inhibit lipid peroxide formation in rat brain tissue homogenate:
Male SD rats (12-weeks old) were subjected to exsanguination under anesthesia with pentobarbital, then the brain was excised. The brain tissue was homogenized in a phosphate buffer solution (pH 7.4) to prepare a 5% homogenate. After incubation of the homogenate at 37° C. for 1 hour, the amount of lipid peroxides formed therein was determined by thiobarbituric acid (TBA) method in accordance with the report of Ohkawa et al. on Analytical Biochemistry 95 351, 1979.
The test drug was added to the 5% homogenate before incubation so as to make the final concentration be 10^-5 M. The activity to inhibit the formation of lipid peroxides was compared with that of the reference group to which was added the solvent (DMSO), and shown by % inhibition.
On to `CCCCCCCCCCCCCCOC1=C(O)[C@@H]([C@@H](O)CO)OC1=O` [Compound (1-8)], for which the “Inhibitory Effect (%) on lipid peroxide formation” value (“Inhibitory Effect (%)” below) stood at 93.1 ± 5.3%.
Then `CCCCCCCCCCCCCCCCOC1=C(O)[C@@H]([C@@H](O)CO)OC1=O` [Compound (1-10), 2-O-hexadecyl-L-ascorbic acid], with 78.5 ± 11.7%; and `CCCCCCCCCCCCOC1=C(O)[C@@H]([C@@H](O)CO)OC1=O` [Compound (1-6), 2-O-Dodecyl-L-ascorbic acid], with 55.7 ± 26.5%.
Then `CCCCCCCCCCCCCCCOC1=C(O)[C@@H]([C@@H](O)CO)OC1=O` [Compound (1-9), 2-O-pentadecyl-L-ascorbic acid], with 100.0 ± 0%; and `CCCCCCCCCCCCCCCCCCOC1=C(O)C(=O)O[C@@H]1[C@@H](O)CO` [reference compound], with 45.4 ± 8.7%; and `CCCCCCCCCCCCCCCCCCCCOC1=C(O)[C@@H]([C@@H](O)CO)OC1=O` [Compound (1-13)], with 95.4 ± 4.6%.
On to `CCCCCCCCCCOC1=C(O)[C@@H]([C@@H](O)CO)OC1=O` [Compound (1-4)], for which the “Inhibitory Effect (%)” value was 40.0 ± 1.1%.
For `CCCCCCCCCCCCCCCCCCCCCCOC1=C(O)[C@@H]([C@@H](O)CO)OC1=O` [Compound (1-14)], the “Inhibitory Effect (%)” value was 38.1 ± 16.6%.
In the case of `CCCCCCCCOC1=C(O)[C@@H]([C@@H](O)CO)OC1=O` [Compound (1-2)], the “Inhibitory Effect (%)” value is given as -6.6 ± 3.0%.

The values above are taken from patent US4959362A, “Pharmaceutical compositions containing certain ascorbic acid derivatives useful in the prophylaxis and treatment of disorders of the circulatory system” (Takeda Chemical Industries, Inc., priority 1983, dated 1990).
